According to patent publication US10968196B2, “Substituted β-lapachones for treating cancer” (University of Pittsburgh—Of the Commonwealth System of …, priority 2015, dated 2021):

Tests used:
Type in all cases: cell-based
A549 cells [1] = assay: Oxygen consumption rate, Seahorse extracellular flux analysis; details: A549, 6 μM, 16 h, Seahorse (FIG. 4B)
Protocol: (4A) A549 cells were treated with XJB-OMe, 3-hydroxy-β-lapachone (14), or XJB-lapachone (18) at 6 μM for 16 h. The generation of ROS was determined by staining cells with MitoSox and DCFHDA. The fluorescence intensity was measured by flow cytometry. Data represents the mean±S.D. of triplicates. (4B) A549 cells were treated as described in A, and the oxygen consumption rate was determined by a Seahorse extracellular flux analyzer. […] (4C) A549 cells were treated as described in A, and mitochondria morphology was examined by electron microscopy. Representative images are shown. (4D) A549 cells were treated as described above. The expression of the autophagy marker LC3 was examined by western blot. β-actin was used as a loading control. Representative images are shown.
Extracellular flux (XF) analysis: Oxygen consumption rate (OCR) was measured using a Seahorse XF96 Extracellular Flux Analyzer (Seahorse Bioscience, North Billerica, Mass.), as previously described (Qian W, et al., Alterations in bioenergetics due to changes in mitochondrial DNA copy number. Methods 2010 51:452-457). Briefly, A549 cells were plated in a 6-well plate and treated with compounds for 16 h. After treatment, cells were trypsinized, counted, and plated at 40,000 cells per well in a XF96 microplate using Cell-Tak cell adhesive. OCR measurements were then performed using a XF96 analyzer.

MDA-MB-231 rho0 cells = assay: Celltiter-blue cell viability in rho0 cells; details: MDA-MB-231 rho0 cells (mtDNA depleted), increasing concentrations, 24 h (FIG. 8)
Protocol: MDA-MB-231 parental and rho0 cells (established by long-term culture of parental MDA-MB-231 cells in the presence of 50 ng/ml ethidium bromide) were treated with increasing concentrations of XJB-lapachone for 24 h. Cell viability was determined by Celltiter-blue.

A549 cells [2] = assay: Vacuole formation by phase contrast microscopy; details: A549, 6 μM, 20 h, phase contrast microscopy (FIG. 3D)
Protocol: (3A) A549 non-small cell lung cancer cells were treated with XJB-OMe, 3-hydroxy-β-lapachone (14), or XJB-lapachone (18) at indicated concentrations for 24 h. Cell viability was determined by a CellTiter-Blue assay. Data represents the mean±SEM. (3B) PEO1 ovarian cancer cells, MDA-MB-231 breast cancer cells, and 983B melanoma cells were treated with XJB-lapachone (18) at indicated concentrations for 24 h. Cell viability was determined by a CellTiter-Blue assay. Data represents the mean±SEM. (3C) Equal numbers of A549 and IMR90 lung fibroblast cells were treated with 10 μM XJB-lapachone (18) for 4 h. XJB-lapachone was then washed away and cells were incubated in drug free media for 3 days. Cell viability was determined by a CellTiter-Blue assay. (3D) A549 cells were treated with XJB-OMe, 3-hydroxy-β-lapachone (14), or XJB-lapachone (18) at 6 μM concentrations for 20 h. The formation of vacuoles was examined by phase contrast microscopy. Representative images are shown. (3E) A549 cells were treated as described above. Apoptotic and necrotic cell death were determined by Annexin V and PI staining. Representative images are shown.
Microscopy: For vacuole imaging, A549 cells were plated in 12-well plate, treated with compounds and the phase contrast images were captured using a Nikon Eclipse TS100 inverted microscope. […]

With CC1(C)OC2=C(CC1O)C(=O)C(=O)c1ccccc12 (stereo not drawn) [3-hydroxy-β-lapachone, reference compound] as the compound, how does the “inhibition of mitochondrial respiration (oxygen consumption) by oligomycin after treatment” value (A549 cells [1]) read?
The value was “oligomycin was efficient in inhibiting the mitochondrial respiration”.

And the “induction of cell death in rho0 cells (cell viability)” value (MDA-MB-231 rho0 cells)?
The value was “not”.

What about the “vacuolization (formation of vacuoles)” value (A549 cells [2]) of the same compound?
Its value is “not detected”.
